Measurements: ChEMBL document CHEMBL5724914, “Linking interpersonal differences in gut microbiota composition and drug biotransformation activity” (2024)

Experiments:
[1] = human gut metagenome, 24 h, 2 µM
[2] = The drug is tested on WLS-038 corresponding to human gut metagenome with ENA study accession number: PRJEB37062 and ENA sample accession number: ERS12561745 for biotransformation under anaerobic condition. The drug concentrations were measured over 9 timepoints collected between 0 and 24 hours of incubation by liquid-chromatography-coupled mass spectrometry (LC–MS); settings: 2 µM
[3] = The drug is tested on WLS-027 corresponding to human gut metagenome with ENA study accession number: PRJEB37062 and ENA sample accession number: ERS12561744 for biotransformation under anaerobic condition. The drug concentrations were measured over 9 timepoints collected between 0 and 24 hours of incubation by liquid-chromatography-coupled mass spectrometry (LC–MS); settings: 2 µM
[4] = The drug is tested on WLS-007 corresponding to human gut metagenome with ENA study accession number: PRJEB37062 and ENA sample accession number: ERS12561742 for biotransformation under anaerobic condition. The drug concentrations were measured over 9 timepoints collected between 0 and 24 hours of incubation by liquid-chromatography-coupled mass spectrometry (LC–MS); settings: 2 µM
[5] = human gut metagenome, 24 h, 2 µM; remark: listed apart in the source
[6] = human gut metagenome, 24 h, 2 µM; remark: listed apart in the source
[7] = human gut metagenome, 24 h, 2 µM; remark: listed apart in the source
[8] = human gut metagenome, 24 h, 2 µM; remark: listed apart in the source
[9] = human gut metagenome, 24 h, 2 µM; remark: listed apart in the source
[10] = The drug is tested on WLS-052 corresponding to human gut metagenome with ENA study accession number: PRJEB37062 and ENA sample accession number: ERS12561747 for biotransformation under anaerobic condition. The drug concentrations were measured over 9 timepoints collected between 0 and 24 hours of incubation by liquid-chromatography-coupled mass spectrometry (LC–MS); settings: 2 µM
[11] = human gut metagenome, 24 h, 2 µM; remark: listed apart in the source
[12] = The drug is tested on Z-005 corresponding to metagenome with ENA study accession number: PRJEB37062 and ENA sample accession number: ERS12561805 for biotransformation under anaerobic condition. The drug concentrations were measured over 9 timepoints collected between 0 and 24 hours of incubation by liquid-chromatography-coupled mass spectrometry (LC–MS); settings: 2 µM
[13] = The drug is tested on Z-002 corresponding to rabbit gut metagenome with ENA study accession number: PRJEB37062 and ENA sample accession number: ERS12561802 for biotransformation under anaerobic condition. The drug concentrations were measured over 9 timepoints collected between 0 and 24 hours of incubation by liquid-chromatography-coupled mass spectrometry (LC–MS); settings: 2 µM
[14] = The drug is tested on Z-007 corresponding to rat gut metagenome with ENA study accession number: PRJEB37062 and ENA sample accession number: ERS12561807 for biotransformation under anaerobic condition. The drug concentrations were measured over 9 timepoints collected between 0 and 24 hours of incubation by liquid-chromatography-coupled mass spectrometry (LC–MS); settings: 2 µM
[15] = The drug is tested on Z-022 corresponding to mouse gut metagenome with ENA study accession number: PRJEB37062 and ENA sample accession number: ERS12561821 for biotransformation under anaerobic condition. The drug concentrations were measured over 9 timepoints collected between 0 and 24 hours of incubation by liquid-chromatography-coupled mass spectrometry (LC–MS); settings: 2 µM
[16] = The drug is tested on Z-027 corresponding to metagenome with ENA study accession number: PRJEB37062 and ENA sample accession number: ERS12561826 for biotransformation under anaerobic condition. The drug concentrations were measured over 9 timepoints collected between 0 and 24 hours of incubation by liquid-chromatography-coupled mass spectrometry (LC–MS); settings: 2 µM
[17] = The drug is tested on Z-013 corresponding to rabbit gut metagenome with ENA study accession number: PRJEB37062 and ENA sample accession number: ERS12561813 for biotransformation under anaerobic condition. The drug concentrations were measured over 9 timepoints collected between 0 and 24 hours of incubation by liquid-chromatography-coupled mass spectrometry (LC–MS); settings: 2 µM
[18] = The drug is tested on Z-024 corresponding to pig gut metagenome with ENA study accession number: PRJEB37062 and ENA sample accession number: ERS12561823 for biotransformation under anaerobic condition. The drug concentrations were measured over 9 timepoints collected between 0 and 24 hours of incubation by liquid-chromatography-coupled mass spectrometry (LC–MS); settings: 2 µM
Note: call rule not given here.

SMILES	Bacterial Biotransformation [1]	Bacterial Biotransformation [2]	Bacterial Biotransformation [3]	Bacterial Biotransformation [4]	Bacterial Biotransformation [5]	Bacterial Biotransformation [6]	Bacterial Biotransformation [7]	Bacterial Biotransformation [8]	Bacterial Biotransformation [9]	Bacterial Biotransformation [10]	Bacterial Biotransformation [11]	Bacterial Biotransformation [12]	Bacterial Biotransformation [13]	Bacterial Biotransformation [14]	Bacterial Biotransformation [15]	Bacterial Biotransformation [16]	Bacterial Biotransformation [17]	Bacterial Biotransformation [18]
OC(CCN1CCCCC1)(c1ccccc1)C1CC2C=CC1C2 (configuration not stated) [BIPERIDEN]	Compound NOT metabolized	Compound NOT metabolized	Compound NOT metabolized	Compound NOT metabolized	Compound metabolized	Compound NOT metabolized	Compound NOT metabolized	Compound NOT metabolized	Compound NOT metabolized	Compound NOT metabolized	Compound metabolized							
CC(=O)O[C@]1(C(C)=O)CC[C@H]2[C@@H]3C=C(Cl)C4=CC(=O)[C@@H]5C[C@@H]5[C@]4(C)[C@H]3CC[C@@]21C [CYPROTERONE ACETATE]	Compound metabolized	Compound metabolized	Compound metabolized	Compound metabolized	Compound metabolized	Compound metabolized	Compound metabolized	Compound metabolized	Compound metabolized	Compound metabolized	Compound NOT metabolized	Compound metabolized	Compound metabolized					
CN1C[C@H](C(=O)N[C@]2(C)O[C@@]3(O)[C@@H]4CCCN4C(=O)[C@H](Cc4ccccc4)N3C2=O)C=C2c3cccc4[nH]cc(c34)C[C@H]21.CN1C[C@H](C(=O)N[C@]2(C)O[C@@]3(O)[C@@H]4CCCN4C(=O)[C@H](Cc4ccccc4)N3C2=O)C=C2c3cccc4[nH]cc(c34)C[C@H]21.O=C(O)C(O)C(O)C(=O)O [ERGOTAMINE TARTRATE]	Compound NOT metabolized	Compound NOT metabolized	Compound metabolized	Compound metabolized	Compound metabolized	Compound metabolized	Compound metabolized	Compound metabolized		Compound metabolized	Compound NOT metabolized	Compound NOT metabolized		Compound NOT metabolized				
COC(=O)C1=C(C)NC(C)=C(C(=O)OC(C)C)C1c1cccc2nonc12 (configuration not stated) [ISRADIPINE]	Compound metabolized	Compound NOT metabolized	Compound metabolized	Compound metabolized	Compound metabolized	Compound metabolized	Compound metabolized	Compound metabolized	Compound metabolized	Compound metabolized	Compound NOT metabolized		Compound metabolized					
CN(C(=O)CN(CCO)CC(=O)N(C)C(C)(C)Cc1ccccc1)C(C)(C)Cc1ccccc1 [OXETHAZAINE]	Compound metabolized	Compound metabolized	Compound metabolized	Compound NOT metabolized	Compound metabolized	Compound metabolized	Compound metabolized	Compound metabolized	Compound metabolized	Compound metabolized	Compound NOT metabolized							
Cc1nc2n(c(=O)c1CCN1CCC(c3noc4cc(F)ccc34)CC1)CCCC2O (configuration not stated) [PALIPERIDONE]	Compound metabolized	Compound metabolized	Compound metabolized	Compound metabolized	Compound metabolized	Compound metabolized	Compound metabolized	Compound metabolized	Compound NOT metabolized	Compound metabolized	Compound NOT metabolized	Compound NOT metabolized			Compound NOT metabolized	Compound NOT metabolized	Compound NOT metabolized	Compound metabolized
CN1CCN(CC/C=C2/c3ccccc3Sc3ccc(S(=O)(=O)N(C)C)cc32)CC1 [THIOTHIXENE]	Compound metabolized	Compound metabolized	Compound metabolized	Compound NOT metabolized	Compound metabolized	Compound metabolized	Compound metabolized	Compound metabolized	Compound metabolized	Compound metabolized	Compound metabolized							
CS(=O)(=O)O.O.O.O.O=C1Cc2cc(CCN3CCN(c4nsc5ccccc45)CC3)c(Cl)cc2N1 [ZIPRASIDONE MESYLATE]	Compound NOT metabolized	Compound metabolized	Compound metabolized	Compound NOT metabolized	Compound NOT metabolized	Compound metabolized	Compound NOT metabolized	Compound metabolized	Compound metabolized	Compound metabolized	Compound NOT metabolized							
